Data as given in US7838493B2, “Acetylcholinesterase (ACHE)-derived peptide as an inducer of granulocytopoiesis, uses and methods thereof” (priority 2004, dated 2010).

System: human CD34+ hematopoietic stem cells
Assay: Ex vivo expansion of CD34+ cells in liquid culture, flow cytometric immunophenotyping
Type: cell-based
Procedure: Mean fluorescence intensity (MFI) served as a measure of AChE-R content in analyzed cells. When multiplied by the percent fractions of AChE-R-positive cells, the MFI values reflected the total content of AChE-R in the analyzed blood cell samples. Myeloid markers of maternal blood cells were analyzed by the following combination of monoclonal antibodies: anti-CD15-FITC (Dako, Glostrup Denmark), anti-CD33-PE (BD Bioscience, Palo Alto, Calif.), anti-CD45-PerCP (BD Bioscience, Palo Alto, Calif.) and anti-CD14-APC (Caltag, Burlingame, Calif.). Corresponding MFI values reflected the amount of receptor on the surface of granulocytes and monocytes. Expanded CD34+ cells were analyzed by 4-color flow cytometry with FITC-conjugated anti-CD15 and PE-conjugated anti-CD33, PerCP-conjugated anti-CD34, and APC-conjugated anti-CD38 (all antibodies purchased from BD Bioscience, Palo Alto, Calif.) using a FACSCalibur with CellQuest software (BD Bioscience, Palo Alto, Calif.). Relevant isotype control antibodies were used to detect non-specific background fluorescence. The total number of expanded cells for each lineage was calculated by multiplying their relative proportions by the number of viable cells in each culture.
PBAN (a negative control insect peptide) [Nijholt (2003) id ibid.] were also used for cell expansion. […] […] At 3-day intervals, cultures were supplemented with the same growth factor(s) and cells were counted by trypan blue exclusion and diluted to maintain cultures at concentrations no higher then 100,000 cells/mL [Pick M. et al. (2002) Exp. Hematol. 30:1079]. Cultured cells were injected into NOD/SCID mice at a concentration of 100,000 or 200,000 together with 100,000 unexpanded CD34+ cells per mouse as indicated.
Peptide controls (ASP40 and PBAN) were used to explore the specificity of this response.

[1] = Table 4b, cortisol (1.2 nM), day 14

Q: `C[C@]12CCC(=O)C=C1CC[C@@H]1[C@@H]2[C@@H](O)C[C@@]2(C)[C@H]1CC[C@]2(O)C(=O)CO` [Cortisol, cortisol] was tested. Which “total number of cells” value (CD34+ cells, 2-week incubation, versus control) did it give?
A: not

Q: And the Cell expansion index (Table 4a, cultured CD34+ cells, cortisol 1.2 μM, viable cells/ml at day 14 divided by seeded cells (50,000))?
A: 1.55 ± 0.07

Q: And the Cell expansion index (Table 4b, typical CD34+ culture, cortisol (1.2 nM), day 14)?
A: 1.6

Q: What about the “CD33+ CD15+ Granulocytes” value [1] of the same molecule?
A: 28.5 cell counts × 10^3

Q: And the “CD33+ CD15− Immature myeloids” value [1]?
A: 13.0 cell counts × 10^3

Q: What about the “CD33− CD15+ Mature granulocytes” value [1] of the same molecule?
A: 15.4 cell counts × 10^3

Q: And the “CD34+ CD33+ Committed myeloids” value [1]?
A: 10.6 cell counts × 10^3

Q: And the “CD34+ CD38+ Committed progenitors” value [1]?
A: 11.0 cell counts × 10^3
